Measurements reported in ChEMBL document CHEMBL1130370, “Novel hydroxyphosphonate inhibitors of CD-45 tyrosine phosphatase” (Bioorg Med Chem Lett, 1997).

Molecular target: T1, Prostatic acid phosphatase (Homo sapiens, UniProt P15309)
T1 sequence (P15309 whole entry): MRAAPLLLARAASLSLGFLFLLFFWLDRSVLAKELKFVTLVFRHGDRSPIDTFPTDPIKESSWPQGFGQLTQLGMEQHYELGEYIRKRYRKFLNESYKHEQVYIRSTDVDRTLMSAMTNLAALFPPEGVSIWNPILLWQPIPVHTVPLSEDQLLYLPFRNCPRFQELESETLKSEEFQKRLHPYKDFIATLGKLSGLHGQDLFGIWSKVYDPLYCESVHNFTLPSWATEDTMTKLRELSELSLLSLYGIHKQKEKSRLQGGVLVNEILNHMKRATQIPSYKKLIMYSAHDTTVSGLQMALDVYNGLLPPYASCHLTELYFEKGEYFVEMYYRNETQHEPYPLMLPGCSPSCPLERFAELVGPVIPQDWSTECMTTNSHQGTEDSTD
Assay: Compound was tested for its inhibitory activity against human prostatic acid phosphatase

| SMILES | IC50 |
| --- | --- |
| O=P(O)(O)C(NCc1ccccc1)c1cccc2ccccc12 (stereo unspecified) | 0.0086 µM |

Molecular target: T2, Receptor-type tyrosine-protein phosphatase C (Homo sapiens) (UniProt P08575)
T2 sequence (whole entry): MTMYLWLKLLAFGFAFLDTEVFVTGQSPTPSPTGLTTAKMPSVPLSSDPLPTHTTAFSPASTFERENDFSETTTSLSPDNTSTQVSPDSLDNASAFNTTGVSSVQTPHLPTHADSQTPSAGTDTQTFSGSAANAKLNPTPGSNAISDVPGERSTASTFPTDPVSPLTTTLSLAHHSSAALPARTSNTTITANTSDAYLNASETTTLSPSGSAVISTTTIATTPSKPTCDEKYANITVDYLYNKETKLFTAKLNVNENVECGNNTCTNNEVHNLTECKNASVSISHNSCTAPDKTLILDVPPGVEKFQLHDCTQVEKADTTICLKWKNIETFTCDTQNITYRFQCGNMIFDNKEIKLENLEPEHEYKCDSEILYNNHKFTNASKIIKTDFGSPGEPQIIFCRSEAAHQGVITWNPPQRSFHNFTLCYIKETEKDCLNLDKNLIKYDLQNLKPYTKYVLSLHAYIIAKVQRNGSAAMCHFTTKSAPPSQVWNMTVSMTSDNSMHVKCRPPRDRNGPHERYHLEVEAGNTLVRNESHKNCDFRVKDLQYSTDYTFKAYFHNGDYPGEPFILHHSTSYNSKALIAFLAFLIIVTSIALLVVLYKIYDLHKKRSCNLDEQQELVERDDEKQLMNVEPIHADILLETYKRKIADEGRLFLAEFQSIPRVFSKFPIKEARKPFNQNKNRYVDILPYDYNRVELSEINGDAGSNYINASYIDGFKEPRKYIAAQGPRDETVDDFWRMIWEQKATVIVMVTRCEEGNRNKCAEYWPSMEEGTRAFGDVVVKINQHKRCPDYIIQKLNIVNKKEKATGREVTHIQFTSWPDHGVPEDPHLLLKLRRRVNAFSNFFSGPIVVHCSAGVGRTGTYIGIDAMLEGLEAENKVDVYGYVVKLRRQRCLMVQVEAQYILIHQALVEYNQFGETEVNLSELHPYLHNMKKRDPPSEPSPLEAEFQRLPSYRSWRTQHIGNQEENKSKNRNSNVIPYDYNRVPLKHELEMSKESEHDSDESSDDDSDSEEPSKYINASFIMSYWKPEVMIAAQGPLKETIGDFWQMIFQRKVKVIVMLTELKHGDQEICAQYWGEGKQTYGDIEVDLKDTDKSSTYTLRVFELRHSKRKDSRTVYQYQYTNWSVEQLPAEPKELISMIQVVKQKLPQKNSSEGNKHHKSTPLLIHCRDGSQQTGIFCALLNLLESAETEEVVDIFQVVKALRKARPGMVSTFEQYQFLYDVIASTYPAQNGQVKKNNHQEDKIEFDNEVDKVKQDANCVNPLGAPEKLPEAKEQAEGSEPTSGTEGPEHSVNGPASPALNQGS
Assay: Compound was tested for its inhibitory activity against CD45 protein-tyrosine phosphatase of Jurkat cell membrane at 250 uM concentration
Type: cell-based

| SMILES | inhibition |
| --- | --- |
| O=P(O)(O)C(NCc1ccccc1)c1cccc2ccccc12 (stereo unspecified) | 23% |

Molecular target: T2, Receptor-type tyrosine-protein phosphatase C (Homo sapiens)
Assay: Compound was tested for its inhibitory activity against CD45 protein-tyrosine phosphatase of Jurkat cell membrane at 1000 uM concentration
Type: cell-based

| SMILES | inhibition |
| --- | --- |
| CC(O)(c1cccc([N+](=O)[O-])c1)P(=O)(O)O (stereo unspecified) | 97% |
| N#Cc1cccc(C(O)P(=O)(O)O)c1 (stereo unspecified) | 49% |
| O=P(O)(O)C(O)c1cccc2ccccc12 (stereo unspecified) | 53% |
| O=[N+]([O-])c1ccc(C(O)P(=O)(O)O)cc1 (stereo unspecified) | 98% |
| O=P(O)(O)C(O)c1ccccc1 (stereo unspecified) | 39% |
| O=[N+]([O-])c1cccc(C(O)P(=O)(O)O)c1 (stereo unspecified) | 93% |
| O=[N+]([O-])c1cc(C(O)P(=O)(O)O)ccc1O (stereo unspecified) | 8% |

Molecular target: not listed separately
Assay: Compound was tested for its inhibitory activity against Osteoclastic acid phosphatase
Design: species or system Homo sapiens

| SMILES | IC50 |
| --- | --- |
| O=C(c1ccccc1)C(C(=O)c1ccccc1)(c1cccc2ccccc12)P(=O)(O)O | 1.4 µM |

Molecular target: T2, Receptor-type tyrosine-protein phosphatase C (Homo sapiens)
Assay: Inhibition of CD45 protein-tyrosine phosphatase of Jurkat cell membrane at 500 uM.
Type: cell-based

| SMILES | inhibition |
| --- | --- |
| O=P(O)(O)C(O)c1ccc2ccccc2c1 (stereo unspecified) | 59% |
| CS(=O)(=O)c1ccc(C(O)P(=O)(O)O)cc1 (stereo unspecified) | 41% |
| O=P(O)(O)C(O)c1ccccn1 (stereo unspecified) | 2% |
| O=P(O)(O)C(O)c1ccncc1 (stereo unspecified) | 0% |
| O=[N+]([O-])c1cc(C(O)P(=O)(O)O)cs1 (stereo unspecified) | 93% |
| O=P(O)(O)C(O)c1ccnc2ccccc12 (stereo unspecified) | 58% |
| O=C(c1ccccc1)C(C(=O)c1ccccc1)(c1cccc2ccccc12)P(=O)(O)O | 8% |
| O=P(O)(O)C(O)c1cccc(O)c1 (stereo unspecified) | 0% |
| Cc1cccc(C(c2ccccc2)P(=O)(O)O)c1 (stereo unspecified) | 8% |
| O=[N+]([O-])c1ccc(Cl)c(C(O)P(=O)(O)O)c1 (stereo unspecified) | 81% |
| O=P(O)(O)C(O)c1cccnc1 (stereo unspecified) | 13% |
| Cc1cccc(C(O)P(=O)(O)O)c1 (stereo unspecified) | 27% |
| O=[N+]([O-])c1cccc(CP(=O)(O)O)c1 | 17% |
| O=[N+]([O-])c1ccc(O)c(C(O)P(=O)(O)O)c1 (stereo unspecified) | 75% |
| O=P(O)(O)C(O)c1cccc(Cl)c1 (stereo unspecified) | 49% |
| COc1ccc(C(O)P(=O)(O)O)cc1 (stereo unspecified) | 42% |
| O=[N+]([O-])c1ccc(SC2CCCCC2)c(C(O)P(=O)(O)O)c1 (stereo unspecified) | 99% |
| Nc1cccc(C(O)P(=O)(O)O)c1 (stereo unspecified) | 23% |

Molecular target: T3, Receptor-type tyrosine-protein phosphatase C (Homo sapiens, UniProt P08575)
T3 sequence (P08575 whole entry): T2 sequence (whole entry)
Assay: Tested for inhibitory activity against CD45 protein-tyrosine phosphatase of Jurkat cell membrane at 1000 uM
Type: cell-based

| SMILES | IC50 |
| --- | --- |
| CC(O)(c1cccc([N+](=O)[O-])c1)P(=O)(O)O (stereo unspecified) | 58 µM |
| O=[N+]([O-])c1ccc(C(O)P(=O)(O)O)cc1 (stereo unspecified) | 28 µM |
| O=[N+]([O-])c1cccc(C(O)P(=O)(O)O)c1 (stereo unspecified) | 10 µM |
